# Data from BindingDB's records for patent US20240425499 (Halia Therapeutics, 2024).
# Target: T1, Tyrosine-protein kinase receptor TYRO3 (Homo sapiens, UniProt Q06418)
# T1 sequence (Q06418 whole entry): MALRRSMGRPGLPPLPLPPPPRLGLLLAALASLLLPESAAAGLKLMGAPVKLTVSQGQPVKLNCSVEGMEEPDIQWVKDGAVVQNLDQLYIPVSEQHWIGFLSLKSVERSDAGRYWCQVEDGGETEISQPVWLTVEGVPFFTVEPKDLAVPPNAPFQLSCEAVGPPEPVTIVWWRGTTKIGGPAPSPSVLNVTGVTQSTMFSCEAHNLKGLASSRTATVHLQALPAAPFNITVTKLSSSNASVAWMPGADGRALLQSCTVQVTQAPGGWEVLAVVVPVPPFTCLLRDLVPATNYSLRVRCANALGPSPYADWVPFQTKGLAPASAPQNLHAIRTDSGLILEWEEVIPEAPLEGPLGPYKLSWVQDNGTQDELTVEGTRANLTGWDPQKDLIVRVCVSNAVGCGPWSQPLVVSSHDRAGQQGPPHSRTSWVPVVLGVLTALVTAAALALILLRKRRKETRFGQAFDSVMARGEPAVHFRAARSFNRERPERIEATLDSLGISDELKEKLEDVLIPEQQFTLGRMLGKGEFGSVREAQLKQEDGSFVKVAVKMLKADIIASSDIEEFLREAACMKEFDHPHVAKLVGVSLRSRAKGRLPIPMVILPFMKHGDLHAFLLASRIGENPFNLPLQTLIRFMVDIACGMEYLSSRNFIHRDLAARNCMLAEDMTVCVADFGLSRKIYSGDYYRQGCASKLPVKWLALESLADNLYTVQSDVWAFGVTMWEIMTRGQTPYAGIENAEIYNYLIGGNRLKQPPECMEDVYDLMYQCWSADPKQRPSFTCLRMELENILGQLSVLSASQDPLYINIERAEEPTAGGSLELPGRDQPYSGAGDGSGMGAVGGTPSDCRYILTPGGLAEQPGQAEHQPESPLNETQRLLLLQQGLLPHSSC
# Assay: TYRO3 Enzymatic Assay
# Experimental: Poly(Glu, Tyr) sodium salt (Glu:Tyr (4:1), quality level 200, molecular weight 5,000-20,000, obtained from Sigma Aldrich, catalogue #P7244, assay concentration 0.20 mg/mL) and recombinant human TYRO3 (obtained from ThermoFisher Scientific, catalogue #PV3828, assay concentration 2 nM) were mixed in assay buffer (20 mM Hepes pH 7.5, 10 mM MgCl2, 1 mM EGTA, 0.02% Brij35, 0.02 mg/ml BSA, 0.1 mM Na3VO4, 2 mM DTT, 1% DMSO, with added MnCl2 at a final concentration of 2 mM). Compounds of interest (in DMSO, serial 3-fold dilution from 10 μM to 0.5 nM) or control (1% DMSO) were dispensed into the kinase reaction mixture by Acoustic technology (Echo550; nanoliter range). After incubation at room temperature for 20 minutes, the kinase reaction was initiated by addition of [32P]-ATP (Specific activity 10 μCi/μl) and the mixture was incubated at room temperature for 2 hours. The reaction was then stopped by spotting the reaction mixture on strips of phosphocellulose P81 paper. Following washing, the radioactivity of the P81 paper was measured and kinase activity data were expressed as the percent remaining kinase activity in test samples compared to vehicle (dimethyl sulfoxide) reactions.
row,SMILES,IC50
1,"COc1ccc(-c2c[nH]c3ncc(-c4ccc(N5CCC(C)(O)CC5)cc4)cc23)cn1 [US20240425499, Compound 72]",> 0.501 µM
2,"COc1ccc(-c2c[nH]c3ncc(-c4ccc(CN5CCCC(F)(F)C5)cc4)cc23)cn1 [US20240425499, Compound 41]",> 0.501 µM
3,"COc1ccc(-c2c[nH]c3ncc(-c4ccc(CN5CC(O)CC(F)(F)C5)cc4)cc23)cn1 (stereo unspecified) [US20240425499, Compound 31]",> 0.501 µM
4,"Cc1nc2cc(-c3c[nH]c4ncc(-c5ccc(CN6CCCC(O)C6)cc5)cc34)cnc2o1 (stereo unspecified) [US20240425499, Compound 84]",< 0.051 µM
5,"COCc1[nH]c2ncc(-c3ccc(CN4CCCC(O)C4)cc3)cc2c1-c1cccc(F)c1 (stereo unspecified) [US20240425499, Compound 63]",< 0.051 µM
6,"OC1CCCN(Cc2ccc(-c3cnc4[nH]cc(-c5cccc(C(F)F)c5)c4c3)cc2)C1 (stereo unspecified) [US20240425499, Compound 9]",< 0.051 µM
7,"CCOCc1[nH]c2ncc(-c3ccc(CN4CCCC(O)C4)cc3)cc2c1-c1cccc(F)c1 (stereo unspecified) [US20240425499, Compound 67]",< 0.051 µM
8,"CN(C)Cc1ccc(-c2c[nH]c3ncc(-c4ccc(CN5CCCC(O)C5)cc4)cc23)cc1 (stereo unspecified) [US20240425499, Compound 17]",< 0.051 µM
9,"COc1ccc(-c2c[nH]c3ncc(-c4ccc(CN5CCCC(O)C5)cc4)cc23)cc1C#N (stereo unspecified) [US20240425499, Compound 18]",< 0.051 µM
10,"COc1ccc(-c2c(Cl)[nH]c3ncc(-c4ccc(CN5CCCC(O)C5)cc4)cc23)cn1 (stereo unspecified) [US20240425499, Compound 56]",< 0.051 µM
11,"CCc1[nH]c2ncc(-c3ccc(CN4CCCC(O)C4)cc3)cc2c1-c1ccc(C(F)F)nc1 (stereo unspecified) [US20240425499, Compound 58]",< 0.051 µM
12,"OC1CCCN(Cc2ccc(-c3cnc4[nH]cc(-c5ccc6cn[nH]c6c5)c4c3)cc2)C1 (stereo unspecified) [US20240425499, Compound 48]",< 0.051 µM
13,"OC1CCCN(Cc2ccc(-c3cnc4[nH]cc(-c5ccc6ocnc6c5)c4c3)cc2)C1 (stereo unspecified) [US20240425499, Compound 50]",< 0.051 µM
14,"Oc1ccc(-c2c[nH]c3ncc(-c4ccc(CN5CCCC(O)C5)cc4)cc23)cc1 (stereo unspecified) [US20240425499, Compound 16]",< 0.051 µM
15,"OC1CCCN(Cc2ccc(-c3cnc4[nH]cc(-c5cccc(F)c5)c4c3)cc2)C1 (stereo unspecified) [US20240425499, Compound 4]",< 0.051 µM
16,"OC1CCCN(Cc2ccc(-c3cnc4[nH]cc(-c5cc(F)cc(F)c5)c4c3)cc2)C1 (stereo unspecified) [US20240425499, Compound 12]",< 0.051 µM
17,"OC1CCCN(Cc2ccc(-c3cnc4[nH]cc(-c5ccc(C(F)F)nc5)c4c3)cc2)C1 (stereo unspecified) [US20240425499, Compound 23]",< 0.051 µM
18,"OC1CCCN(Cc2ccc(-c3cnc4[nH]cc(-c5ccc6c(c5)CCNC6)c4c3)cc2)C1 (stereo unspecified) [US20240425499, Compound 80]",< 0.051 µM
19,"COCc1[nH]c2ncc(-c3ccc(CN4CCCC(O)C4)cc3)cc2c1-c1ccnc(C(F)F)c1 (stereo unspecified) [US20240425499, Compound 66]",< 0.051 µM
20,"OC1CCCN(Cc2ccc(-c3cnc4[nH]cc(-c5cnc6[nH]ccc6c5)c4c3)cc2)C1 (stereo unspecified) [US20240425499, Compound 47]",< 0.051 µM
21,"OC1CCN(Cc2ccc(-c3cnc4[nH]cc(-c5ccc6[nH]ccc6c5)c4c3)cc2)CC1 [US20240425499, Compound 78]",< 0.051 µM
22,"OC1CCCN(Cc2ccc(-c3cnc4[nH]cc(-c5cc(F)cc(C(F)(F)F)c5)c4c3)cc2)C1 (stereo unspecified) [US20240425499, Compound 13]",> 0.501 µM
23,"COc1ccc(-c2c[nH]c3ncc(-c4ccc(CN5CC(CO)CC(F)(F)C5)cc4)cc23)cn1 (stereo unspecified) [US20240425499, Compound 33]",> 0.501 µM
24,"OC1CCCN(Cc2ccc(-c3cnc4[nH]c(-c5ccoc5)c(-c5ccnc(F)c5)c4c3)cc2)C1 (stereo unspecified) [US20240425499, Compound 86]",< 0.051 µM
25,"CN(C)Cc1[nH]c2ncc(-c3ccc(CN4CCCC(O)C4)cc3)cc2c1-c1cccc(F)c1 (stereo unspecified) [US20240425499, Compound 87]",> 0.501 µM
26,"OC1CCCN(Cc2ccc(-c3cnc4[nH]cc(-c5cccc6[nH]ncc56)c4c3)cc2)C1 (stereo unspecified) [US20240425499, Compound 49]",< 0.051 µM

# Further lines, results first:
row,IC50,SMILES
1,< 0.051 µM,"Cc1nc2cc(-c3c[nH]c4ncc(-c5ccc(CN6CCCC(O)C6)cc5)cc34)ccc2o1 (stereo unspecified) [US20240425499, Compound 51]"
2,< 0.051 µM,"N#Cc1ccc(-c2c[nH]c3ncc(-c4ccc(CN5CCCC(O)C5)cc4)cc23)cc1 (stereo unspecified) [US20240425499, Compound 14]"
3,< 0.051 µM,"OC1CCCN(Cc2ccc(-c3cnc4[nH]c(CC5CC5)c(-c5cccc(F)c5)c4c3)cc2)C1 (stereo unspecified) [US20240425499, Compound 90]"
4,< 0.051 µM,"OC1CCCN(Cc2ccc(-c3cnc4[nH]cc(-c5cc(F)c6ocnc6c5)c4c3)cc2)C1 (stereo unspecified) [US20240425499, Compound 52]"
5,< 0.051 µM,"Cc1cccc(-c2c[nH]c3ncc(-c4ccc(CN5CCCC(O)C5)cc4)cc23)c1 (stereo unspecified) [US20240425499, Compound 2]"
6,< 0.051 µM,"COC1CCN(Cc2ccc(-c3cnc4[nH]cc(-c5ccc6[nH]ccc6c5)c4c3)cc2)CC1 [US20240425499, Compound 45]"
7,< 0.051 µM,"N#Cc1cccc(-c2c[nH]c3ncc(-c4ccc(CN5CCCC(O)C5)cc4)cc23)c1 (stereo unspecified) [US20240425499, Compound 15]"
8,< 0.051 µM,"CCc1[nH]c2ncc(-c3ccc(CN4CCCC(O)C4)cc3)cc2c1-c1ccc(OC)nc1 (stereo unspecified) [US20240425499, Compound 59]"
9,< 0.051 µM,"COC1CN(Cc2ccc(-c3cnc4[nH]cc(-c5ccc6[nH]ccc6c5)c4c3)cc2)C1 [US20240425499, Compound 46]"
10,< 0.051 µM,"COCc1[nH]c2ncc(-c3ccc(CN4CCCC(O)C4)cc3)cc2c1-c1ccnc(F)c1 (stereo unspecified) [US20240425499, Compound 65]"
11,< 0.051 µM,"CCc1[nH]c2ncc(-c3ccc(CN4CCCC(O)C4)cc3)cc2c1-c1cccc(F)c1 (stereo unspecified) [US20240425499, Compound 57]"
12,< 0.051 µM,"CC(C)(O)c1ccc(-c2c[nH]c3ncc(-c4ccc(CN5CCCC(O)C5)cc4)cc23)cc1 (stereo unspecified) [US20240425499, Compound 85]"
13,< 0.051 µM,"OCc1ccc(-c2c[nH]c3ncc(-c4ccc(CN5CCCC(O)C5)cc4)cc23)cc1 (stereo unspecified) [US20240425499, Compound 83]"
14,< 0.051 µM,"COc1ccc(-c2c[nH]c3ncc(-c4ccc(C(C)N5CCCC(O)C5)cc4)cc23)cn1 (stereo unspecified) [US20240425499, Compound 75]"
15,< 0.051 µM,"N#Cc1cc(-c2c[nH]c3ncc(-c4ccc(CN5CCCC(O)C5)cc4)cc23)ccc1O (stereo unspecified) [US20240425499, Compound 53]"
16,< 0.051 µM,"CCc1[nH]c2ncc(-c3ccc(CN4CCCC(O)C4)cc3)cc2c1-c1ccnc(F)c1 (stereo unspecified) [US20240425499, Compound 60]"
17,< 0.051 µM,"c1cc2cc(-c3c[nH]c4ncc(-c5ccc(CN6CCCCC6)cc5)cc34)ccc2[nH]1 [US20240425499, Compound 79]"
18,< 0.051 µM,"CCc1[nH]c2ncc(-c3ccc(CN4CCCC(O)C4)cc3)cc2c1-c1ccnc(C(F)F)c1 (stereo unspecified) [US20240425499, Compound 61]"
19,< 0.051 µM,"OC1CN(Cc2ccc(-c3cnc4[nH]cc(-c5ccc6[nH]ccc6c5)c4c3)cc2)C1 [US20240425499, Compound 44]"
20,< 0.051 µM,"CC1(O)CCN(Cc2ccc(-c3cnc4[nH]cc(-c5ccc6[nH]ccc6c5)c4c3)cc2)CC1 [US20240425499, Compound 76]"
